Results from ChEMBL document CHEMBL1153781, “Prediction of volume of distribution values in human using immobilized artificial membrane partitioning coefficients, the fraction of compound ionized and plasma protein binding data” (Eur J Med Chem, 2009).

Key:
[1] = system: Plasma; settings: human
[2] = clinical; settings: human, in vivo

Structure (SMILES) | fu [1] | Vd [2]
CC(=O)[C@@]1(O)CC[C@H]2[C@@H]3C[C@H](C)C4=CC(=O)CC[C@]4(C)[C@H]3CC[C@@]21C | 0.1 | 4.66 L/kg
CCOC(=O)[C@H](CCc1ccccc1)N[C@@H](C)C(=O)N1CCC[C@H]1C(=O)O | 0.4 | 1.7 L/kg
CC(=O)Nc1ccc(O)cc1 [ACETAMINOPHEN] | 1 | 
CC(C)(C)NCC(O)c1ccc(O)c(CO)c1 (configuration not stated) [ALBUTEROL] | 0.93 | 
CN(C)CCC=C1c2ccccc2CCc2ccccc21 [AMITRIPTYLINE] | 0.06 | 
CCC1(CCC(C)C)C(=O)NC(=O)NC1=O [AMOBARBITAL] |  | 1.05 L/kg
Cc1cc(=O)n(-c2ccccc2)n1C [ANTIPYRINE] | 0.87 | 
CN1CCc2cccc3c2[C@H]1Cc1ccc(O)c(O)c1-3 [APOMORPHINE] | 0.5 | 2 L/kg
CC(=O)Oc1ccccc1C(=O)O [ASPIRIN] | 0.3 | 0.15 L/kg
CC(C)NCC(O)COc1ccc(CC(N)=O)cc1 (configuration not stated) [ATENOLOL] | 0.91 | 
NC(=O)N1c2ccccc2C=Cc2ccccc21 [CARBAMAZEPINE] | 0.25 | 1.4 L/kg
O=C(O)CCCc1ccc(N(CCCl)CCCl)cc1 [CHLORAMBUCIL] |  | 0.29 L/kg
O=C(N[C@H](CO)[C@H](O)c1ccc([N+](=O)[O-])cc1)C(Cl)Cl [CHLORAMPHENICOL] | 0.47 | 
CN(C)CCC(c1ccc(Cl)cc1)c1ccccn1 (configuration not stated) [CHLORPHENIRAMINE] | 0.3 | 
CN/C(=N/CCSCc1nc[nH]c1C)NC#N [CIMETIDINE] | 0.81 | 
Clc1cccc(Cl)c1N=C1NCCN1 [CLONIDINE] | 0.8 | 
COc1ccc2c3c1O[C@H]1[C@@H](O)C=C[C@H]4[C@@H](C2)N(C)CC[C@@]341 [CODEINE] | 0.93 | 
CN1C(=O)CN=C(c2ccccc2)c2cc(Cl)ccc21 [DIAZEPAM] | 0.02 | 
O=C(O)Cc1ccccc1Nc1c(Cl)cccc1Cl [DICLOFENAC] | 0.01 | 
C[C@H]1O[C@@H](O[C@H]2[C@@H](O)C[C@H](O[C@H]3[C@@H](O)C[C@H](O[C@H]4CC[C@@]5(C)[C@H](CC[C@@H]6[C@@H]5C[C@@H](O)[C@]5(C)[C@@H](C7=CC(=O)OC7)CC[C@]65O)C4)O[C@@H]3C)O[C@@H]2C)C[C@H](O)[C@@H]1O [DIGOXIN] |  | 3.12 L/kg

Structure (SMILES) | fu [1] | Vd [2]
CN(C)CCC=C1c2ccccc2COc2ccccc21 [DOXEPIN] | 0.17 | 11.7 L/kg
Cn1c(=O)c2c(ncn2CC(O)CO)n(C)c1=O (configuration not stated) [DYPHYLLINE] | 0.6 | 0.8 L/kg
C[C@]12CC[C@@H]3c4ccc(O)cc4CC[C@H]3[C@@H]1CC[C@@H]2O [ESTRADIOL] | 0.015 | 
NC(N)=Nc1nc(CSCCC(N)=NS(N)(=O)=O)cs1 [FAMOTIDINE] | 0.83 | 
CC(C(=O)O)c1ccc(-c2ccccc2)c(F)c1 (configuration not stated) [FLURBIPROFEN] | 0.01 | 0.12 L/kg
NS(=O)(=O)c1cc(C(=O)O)c(NCc2ccco2)cc1Cl [FUROSEMIDE] | 0.03 | 
COc1ccc(Cl)cc1C(=O)NCCc1ccc(S(=O)(=O)NC(=O)NC2CCCCC2)cc1 [GLYBURIDE] | 0.01 | 0.14 L/kg
COC1=CC(=O)C[C@@H](C)[C@]12Oc1c(Cl)c(OC)cc(OC)c1C2=O [GRISEOFULVIN] | 0.16 | 1.5 L/kg
NS(=O)(=O)c1cc2c(cc1Cl)NCNS2(=O)=O [HYDROCHLOROTHIAZIDE] | 0.6 | 0.83 L/kg
C[C@]12CCC(=O)C=C1CC[C@@H]1[C@@H]2[C@@H](O)C[C@@]2(C)[C@H]1CC[C@]2(O)C(=O)CO [HYDROCORTISONE] | 0.09 | 
COc1ccc2c(c1)c(CC(=O)O)c(C)n2C(=O)c1ccc(Cl)cc1 [INDOMETHACIN] | 0.1 | 0.1 L/kg
NNC(=O)c1ccncc1 [ISONIAZID] | 1 | 0.67 L/kg
CC(C(=O)O)c1cccc(C(=O)c2ccccc2)c1 (configuration not stated) [KETOPROFEN] |  | 0.15 L/kg
Cc1c(OCC(F)(F)F)ccnc1C[S+]([O-])c1nc2ccccc2[nH]1 (configuration not stated) [LANSOPRAZOLE] | 0.03 | 0.35 L/kg
C[C@H]1COc2c(N3CCN(C)CC3)c(F)cc3c(=O)c(C(=O)O)cn1c23.C[C@H]1COc2c(N3CCN(C)CC3)c(F)cc3c(=O)c(C(=O)O)cn1c23.O [LEVOFLOXACIN] | 0.69 | 1.36 L/kg
CCC[C@@H]1C[C@@H](C(=O)N[C@@H]([C@H]2O[C@H](SC)[C@H](O)[C@@H](O)[C@H]2O)[C@@H](C)O)N(C)C1 [LINCOMYCIN] | 0.28 | 1.3 L/kg
Cc1cnc(NC(=O)C2=C(O)c3ccccc3S(=O)(=O)N2C)s1 [MELOXICAM] | 0.006 | 
CN(C)C(=N)N=C(N)N [METFORMIN] |  | 2.45 L/kg
CN1CC[C@]23c4c5ccc(O)c4O[C@H]2[C@@H](O)C=C[C@H]3[C@H]1C5 [MORPHINE] | 0.61 | 
COc1ccc2cc([C@H](C)C(=O)O)ccc2c1 [NAPROXEN] | 0.01 | 

Structure (SMILES) | fu [1] | Vd [2]
COC(=O)C1=C(C)NC(C)=C(C(=O)OCCN(C)Cc2ccccc2)C1c1cccc([N+](=O)[O-])c1 (configuration not stated) [NICARDIPINE] | 0.05 | 0.98 L/kg
COCCOC(=O)C1=C(C)NC(C)=C(C(=O)OC(C)C)C1c1cccc([N+](=O)[O-])c1 (configuration not stated) [NIMODIPINE] | 0.05 | 1.5 L/kg
CC1(C)S[C@@H]2[C@H](NC(=O)Cc3ccccc3)C(=O)N2[C@H]1C(=O)O [PENICILLIN G] | 0.425 | 
CCC1(c2ccccc2)C(=O)NC(=O)NC1=O [PHENOBARBITAL] | 0.5 | 0.63 L/kg
O=C1NC(=O)C(c2ccccc2)(c2ccccc2)N1 [PHENYTOIN] | 0.1 | 0.64 L/kg
CN1C(C(=O)Nc2ccccn2)=C(O)c2ccccc2S1(=O)=O [PIROXICAM] | 0.01 | 0.14 L/kg
C[C@]12C=CC(=O)C=C1CC[C@@H]1[C@@H]2[C@@H](O)C[C@@]2(C)[C@H]1CC[C@]2(O)C(=O)CO [PREDNISOLONE] | 0.075 | 
C[C@]12C=CC(=O)C=C1CC[C@@H]1[C@@H]2C(=O)C[C@@]2(C)[C@H]1CC[C@]2(O)C(=O)CO [PREDNISONE] | 0.25 | 
CC(CN1c2ccccc2Sc2ccccc21)N(C)C (configuration not stated) [PROMETHAZINE] | 0.07 | 
CCCNCC(O)COc1ccccc1C(=O)CCc1ccccc1 (configuration not stated) [PROPAFENONE] | 0.05 | 
CC(C)NCC(O)COc1cccc2ccccc12 (configuration not stated) [PROPRANOLOL] | 0.1 | 
CN[C@@H](C)[C@@H](O)c1ccccc1 [PSEUDOEPHEDRINE] | 1 | 2.84 L/kg
NC(=O)c1cnccn1 [PYRAZINAMIDE] | 0.9 | 0.7 L/kg
CCCN1CCCC[C@H]1C(=O)Nc1c(C)cccc1C [ROPIVACAINE] | 0.06 | 0.55 L/kg
O=C(O)c1ccccc1O [SALICYLIC ACID] | 0.05 | 0.17 L/kg
CCC(C)(C)C(=O)O[C@H]1C[C@@H](C)C=C2C=C[C@H](C)[C@H](CC[C@@H]3C[C@@H](O)CC(=O)O3)[C@H]21 [SIMVASTATIN] |  | 0.98 L/kg
Nc1ccc(S(=O)(=O)Nc2ncccn2)cc1 [SULFADIAZINE] | 0.55 | 0.92 L/kg
CCN1CCCC1CNC(=O)c1cc(S(N)(=O)=O)ccc1OC (configuration not stated) [SULPIRIDE] | 0.6 | 2.5 L/kg
CCCCNC(=O)NS(=O)(=O)c1ccc(C)cc1 [TOLBUTAMIDE] |  | 0.14 L/kg
COc1cc(Cc2cnc(N)nc2N)cc(OC)c1OC [TRIMETHOPRIM] | 0.63 | 
